Test results as given in US20080200433A1, “Molecular Chaperone Function Regulator” (priority 2004, published 2008).

Tests used:
HSP70 [1] = experiment: Induction of HSP70 in T-47D cells (Western blot); type: cell-based, human; settings: 10 μM, 9 hr; for HSP70 expression, Experiment 2 (T/C, %): control = 100, Experiment 2; for HSP70 expression, Experiment 1 (T/C, %): control = 100, Experiment 1
Protocol: (Method) T-47D cells were cultured in a 12-well plate and, at the time point when the cells grew to about 70-80%, compounds A, B, C, D, E and F were each added to 10 μM.
(§1) DMSO (0.1%) was added to the control. After the addition, the cells were collected 9 hr later and cell extracts were prepared. Expression of HSP70 protein in the cell extracts was examined by Western blot using an HSP70 specific antibody. T/C (%) was determined using the amount of chemical luminescence on a PVDF film due to an HRP-labeled secondary antibody as the HSP70 expression amount and HSP70 expression amount of the cells in the control well as 100.

ubiquitinated protein = experiment: Induction of ubiquitinated protein in T-47D cells (Western blot); type: cell-based, human; settings: vs DMSO control (FIG. 7)
Protocol: DMSO (0.1%) was added to the control. After the addition, the cells were collected 1, 3, 6 and 24 hr later and cell extracts were prepared. Expression of ubiquitinated protein in the cell extracts was examined by Western blot using a ubiquitin specific antibody. T/C (%) was determined using the amount of chemical luminescence on a PVDF film due to an HRP-labeled secondary antibody as the ubiquitinated protein expression amount and the expression amount of the cell extract in the control well as 100.

HSP70 [2] = experiment: Time-dependent HSP70 induction in A-431 cells (Western blot); type: cell-based, human; settings: 10 μM, vs DMSO control (FIG. 1)
Protocol: as §1, with “6, 9, 12 and 24” for “9”

HSP70 [3] = experiment: Induction of HSP70 in various human tumor-derived cells (Western blot); type: cell-based; settings: TE-8, NCI-H520, HPAC, DU145, KPL-4, MKN-45, HL-60 and DLD-1 cells, 10 μM, 9 hr, vs DMSO control (FIG. 2)
Protocol: (Method) As to the induction of HSP70 by compound A, induction in various human tumor cells was examined.
TE-8 cell, NCI-H520 cell, HPAC cell, DU145 cell, KPL-4 cell, MKN-45 cell, HL-60 cell and DLD-1 cell were each were cultured in a 12-well plate.
DMSO (0.1%) was added to a control well. After the addition, the cells were collected 9 hr later and cell extracts were prepared. Expression of HSP70 protein in the tumor cell extracts was examined by Western blot using an HSP70 specific antibody.

[4] = test system: client proteins EGFR, HER2, ERα, AR, AKT and CDK4 of HSP90 chaperone; experiment: Suppressive action on HSP90 client protein expression in MCF-7 cells (Western blot); type: cell-based, human; settings: 10 μM, 24 hr, vs DMSO control (FIG. 3)
Protocol: After the addition of the compound, the cells were collected and divided in two 24 hr later. Cell extracts were prepared from half the cells, and cytoplasmic fraction and nuclear fraction were prepared from the remaining half. […] Expression of client in each tumor cell extract and nuclear fraction was examined by Western blot using an antibody specific to each client.

[5] = test system: human breast cancer-derived MCF-7 cell; experiment: Suppressive effect on estradiol (E2)-dependent cell growth (XTT); type: cell-based; settings: 10 nM E2, Day 10, XTT; compound A 0.037-3 μM, tamoxifen 0.062-5 μM (FIG. 4)
Source text: (Method) Using human breast cancer-derived MCF-7 cell that expresses estrogen receptor and grows in response to estradiol (E2, 17β-Estradiol, Cat. #E 1024, Sigma Ltd.), the effect of compound A on the cell growth in the presence of E2 was examined. As the control compound, tamoxifen (Cancer Res., 62, 2474-2477, 2002) (Cat. #T 9262, Sigma Ltd.) known to suppress growth of human breast cancer-derived MCF-7 cell by E2 stimulation was used. MCF-7 cells were suspended in a phenol red non-addition DME-F12 mixed medium containing 5% fetal calf serum treated with activated carbon, and cultured at 2×10^4 cells/well in a 24 well plate. […]
The cell growth activity was measured on Day 10 by the dye method using XTT.
That is, after the completion of the culture, XTT was added to each well and, after color development for 4 hr, the reaction mixture was transferred to a 96 well plate, and the absorbance at 492 nm was measured.
The suppression rate was calculated from the following formula.
Suppression rate (%)={1−[(absorbance of compound addition well in the presence of E2)−(absorbance of control well without E2 addition)]÷[(absorbance of control well in the presence of E2)−(absorbance of control well without E2 addition)]×100

[6] = test system: human prostate cancer-derived DU 145 cells; experiment: Cell growth suppression by combined hyperthermic treatment and compound (XTT); type: cell-based; settings: 0.37-10 μM, 43° C. 4 hr vs 37° C., then 24 hr culture, XTT (FIG. 5)
Protocol: (Method) Using human prostate cancer-derived DU 145 cells, the effect of compound A on the cell growth suppressive action during hyperthermic treatment was examined. DU 145 cells were cultured at 1×10^4 cells/well in two 96 well plates. The next day, compound A was added to each plate to 0.37, 1.1, 3.3 and 10 μM, one plate was incubated for 4 hr in a 5% CO2 incubator set to 43° C. (heat treatment), and the other plate was incubated in the same manner for 4 hr in a 5% CO2 incubator set to 37° C. After 4 hr, the wells were washed 3 times with saline, a growth medium was added and cultured in a 5% CO2 incubator at 37° C. for 24 hr.
The cell growth activity was measured by the dye method using XTT as in Example 4. That is, after the culture, XTT was added to each well and, 4 hr later, the absorbance at 492 nm was measured.
T/C (%) was determined from the following formula with the absorbance of the control well in the plate without the heat treatment as 100.
T/C (%)=[absorbance of heat-treated control well or compound-treated well÷absorbance of control well without heat treatment]×100

[7] = test system: human breast cancer-derived MCF-7 implanted in nude mouse; experiment: Antitumor effect on human breast cancer-derived MCF-7 implanted in nude mouse; type: in vivo; settings: 100 mg/kg orally once a day for 2 weeks, vs solvent control, Dunnett's test p<0.05 (FIG. 6)
Protocol: (Method) Human breast cancer-derived MCF-7 cells were subcutaneously implanted in female nude mouse purchased from CLEA Japan, Inc. The effect of compound A on the growth was examined. A 17β-estradiol solution was added dropwise to a small piece of glass microfibre filter GF/B (Whatman, #1821 05) to give a pellet (500 μg/filter). The pellet was subcutaneously implanted in the neck of female Balb/c nude mouse, and MCF-7 cells were subcutaneously implanted in the right back at 5×10^6 cells/mouse. From 7 days after the implantation, compound A was orally administered at 30 mg/kg and 100 mg/kg to nude mice (5 per group) once a day for 2 weeks.
The 0.5% tragacanth solution used as a solvent was similarly administered to the control. The next day of the final administration, the nude mice were sacrificed under anesthesia, and the subcutaneous tumor was isolated and weighed. The mean tumor weight and standard error of each group were calculated, and statistically analyzed by the Dunnett's test and using the solvent administration group as a control.

C=CC(=O)Nc1cc2c(Nc3ccc(F)c(Cl)c3)ncnc2cc1C#CC(C)(C)N1CCN(CCOC)CC1 [B, N-([4-(3-Chloro-4-fluorophenyl)amino]-7-{3-[4-(2-methoxyethyl)-1-piperazinyl]-3-methyl-1-butynyl}-6-quinazolinyl)acrylamide]
HSP70 expression, Experiment 2 (T/C, %) (HSP70 [1]): 482%

C=CC(=O)Nc1cc2c(Nc3ccc(F)c(Cl)c3)ncnc2cc1C#CCN1CCN(C)CC1 [C, N-{4-[(3-Chloro-4-fluorophenyl)amino]-7-[3-(4-methyl-1-piperazinyl)-1-propynyl]-6-quinazolinyl}acrylamide]
HSP70 expression, Experiment 1 (T/C, %) (HSP70 [1]): 207%

C=CC(=O)Nc1cc2c(Nc3cccc(C#N)c3)ncnc2cc1C#CC(C)(C)N1CCN(C)CC1 [D, N-{4-[(3-Cyano-phenyl)amino]-7-[3-methyl-3-(4-methyl-1-piperazinyl)-1-butynyl]-6-quinazolinyl}acrylamide]
HSP70 expression, Experiment 2 (T/C, %) (HSP70 [1]): 446%

C=CC(=O)Nc1cc2c(Nc3ccc(F)c(Cl)c3)ncnc2cc1C#CC1(N2CCN(C)CC2)CCOCC1 [E, N-{4-[(3-Chloro-4-fluorophenyl)amino]-7-[4-(4-methyl-1-piperazinyl)-4-tetrahydropyranylethynyl]-6-quinazolinyl}acrylamide]
HSP70 expression, Experiment 1 (T/C, %) (HSP70 [1]): 172%

CCOc1cc2ncnc(Nc3ccc(F)c(Cl)c3)c2cc1C#CC(C)(C)N(C)C1CCN(C)CC1 [F, (3-Chloro-4-fluorophenyl)-(7-ethoxy-6-{3-methyl-3-[methyl-(1-methyl-4-piperidinyl)amino]-1-butynyl}-4-quinazolinyl)amine]
HSP70 expression, Experiment 1 (T/C, %) (HSP70 [1]): 141%

CC(C)C[C@H](NC(=O)[C@H](Cc1ccccc1)NC(=O)c1cnccn1)B(O)O [bortezomib, reference compound]
amount of ubiquitinated protein (ubiquitinated protein; 3 μM, 1, 3, 6 and 24 hr): remarkably appeared from 3 hr after the treatment

C=CC(=O)Nc1cc2c(Nc3ccc(F)c(Cl)c3)ncnc2cc1C#CC(C)(C)N1CCN(C)CC1 [compound A]
expression of HSP70 (HSP70 [2]; 6 hr to 12 hr after treatment): increased in a time-dependent manner | expression of HSP70 (HSP70 [2]; 24 hr after treatment): markedly decreased | HSP70 expression (HSP70 [3]): increased | expression of HSP90 client proteins [4]: decreased expression | growth of MCF-7 cells by E2 stimulation [5]: suppresses the growth | cell death due to heat shock [6]: cell death due to heat shock is enhanced | tumor weight [7]: significantly decreased | HSP70 expression, Experiment 1 (T/C, %) (HSP70 [1]): 299% | HSP70 expression, Experiment 2 (T/C, %) (HSP70 [1]): 895% | amount of ubiquitinated protein (ubiquitinated protein; 1 μM, 1, 3, 6 and 24 hr): did not occur until after 24 hr | amount of ubiquitinated protein (ubiquitinated protein; 3 μM, 1, 3, 6 and 24 hr): increased from 6 hr after the treatment | amount of ubiquitinated protein (ubiquitinated protein; 10 μM, 1, 3, 6 and 24 hr): increased from 6 hr after the treatment

COc1cc2ncnc(Nc3ccc(F)c(Cl)c3)c2cc1OCCCN1CCOCC1 [gefinitib, 4-(3′-Chloro-4′-fluoroanilino)-7-methoxy-6-(3-morpholinopropoxy)quinazoline, reference compound]
HSP70 expression (HSP70 [3]): did not show a clear increase

CC/C(=C(\c1ccccc1)c1ccc(OCCN(C)C)cc1)c1ccccc1 [tamoxifen, reference compound]
growth of MCF-7 cells by E2 stimulation [5]: suppresses the growth
